Legend:
SMARCA2 [1] = biological target: T1, SMARCA2 (Homo sapiens, UniProt P51531); test: SMARCA2 degradation in cell lines, western blot; format: cell-based
Description: Cell lines with wild-type SMARCA4 (H1975, H1792, H2122, and H441) were treated with DMSO or 0.001, 0.01, 0.1, 1, or 10 μm of ACBI1 (degrader of SMARCA2, SMARCA4 and polybromo-associated BAF complex PBRM1) or Compound 101 and expression levels of SMARCA2 (FIG. 2A) and SMARCA4 (FIG. 2B) were detected by western blot.
Cell lines with wild-type SMARCA4 (H1792) and mutant SMARCA4 (H1299) were treated for 72 h or 96 h with DMSO or 0.001, 0.01, 0.1, 1, or 10 μm Compound 103 and analyzed by western blot for SMARCA2, SMARCA4, and PBRM1 expression (FIGS. 4A, 4B, and 4C).
Cell lines with wild-type SMARCA4 (H1792) and mutant SMARCA4 (H1299) were treated for 72 h or 96 h with DMSO or 0.001, 0.01, 0.1, 1, or 10 μm Compound 102 and analyzed by western blot for SMARCA2, SMARCA4, and PBRM1 expression (FIGS. 5A, 5B, and 5C).
Cell lines with wild-type SMARCA4 (H1975) were treated with DMSO or 0.001, 0.01, 0.1, 1, or 10 μm of Compounds 104, 105, 106, 107, or 108 and analyzed by western blot for SMARCA2, SMARCA4, and PBRM1 expression (FIGS. 6A and 6B).

H2023 = test: Cell proliferation (colony assay) IC50; format: cell-based; settings: NCI-H2023; H2023, mutant SMARCA4
SMARCA2 [2] = biological target: T1, SMARCA2; test: Immunohistochemistry of SMARCA2 in H1299 xenograft tumors; format: in vivo; design: from tissue; host or cells: H1299 xenograft tumour tissue from female NCR Nude mice; settings: NCR Nude mice, 200 mg/kg intraperitoneally once per day for four days
Description: NCR Nude mice were injected with vehicle or SMARCA2 degrader Compound 101 (200 mg/kg) once per day for four consecutive days intraperitoneally. Tumor tissues were harvested 24 hours after the last dose and fixed in formalin for 24 hours, paraffin embedded, sectioned and stained according to standard procedures. Briefly, endogenous peroxidases were inactivated by 3% hydrogen peroxide. Non-specific signals were blocked using 3% BSA, 10% goat serum in 0.1% Triton X-100. After antigen retrieval in citrate buffer, slides were stained overnight at 4° C. using SMARCA2 antibodies (Cell Signaling, D9E8B1:2000). After overnight incubation, the slides were washed and incubated with secondary antibody (HRP-polymers, Biocare Medical) for 30 min at room temperature. The slides were washed three times and stained with DAB substrate (ThermoFisher Scientific). The slides were then counterstained with haematoxylin and mounted with mounting medium. The slides were imaged by Vectra microscope and the signal intensity and percentage of cells positive for SMARCA2 was quantified using Vectra 3.0.7 software.

[3] = system: HCC515 lung cancer xenograft; test: In vivo anti-tumor efficacy, HCC515 lung cancer xenograft model; settings: female NCR Nude mice, 12.5 mg/kg intraperitoneally once daily in 15% Solutol with 12.5 mg/kg ritonavir, versus vehicle
Description: About 1×10^7 HCC515 cells were injected into the flanks of female NCR Nude Mice. Tumor take was monitored visually and by palpation bi-weekly. Once tumors reached an average volume of 100 mm^3 mice were randomized into control and SMARCA2 degrader groups. Treatment cohorts were as follows: Vehicle was 15% Solutol in water together with 12.5 mg/kg of ritonavir as metabolic stabilizer. In the vehicle group, ten animals were injected with vehicle intraperitoneally. In the treatment group, ten animals were injected intraperitoneally once daily with 12.5 mg/kg of the SMARCA2 degrader Compound 101 in 15% Solutol in water together with 12.5 mg/kg of ritonavir as metabolic stabilizer.
Tumor diameter and volume were calculated based on caliper measurements of tumor length and […] using the formula tumor volume=(length×width^2)/2. Tumor volume and body weight were measured three times a week.

H1793 = test: Cell proliferation (colony assay) IC50; format: cell-based; settings: Homo sapiens, NCI-H1793; H1793, mutant SMARCA4
wild-type SMARCA4 cells = test: Colony assay / cell proliferation, wild-type SMARCA4 cell lines as a group; format: cell-based
Description: (§1) Cell lines with wild-type SMARCA4 (HCC44, H2122, H1792 and H1975) and cell lines with mutant SMARCA4 (H1693, HCC515, H322, and H1299) were seeded in appropriate dilutions to form colonies in about 1-3 weeks. Cells were treated with ACBI1 or Compound 101 at concentrations of 0.001, 0.01, 0.1, 1, and 10 μm. Colonies were fixed with glutaraldehyde (6% v/v), stained with crystal violet (0.5% w/v) and the percent area of colonies was determined (FIGS. 3A and 3B). In cell lines with wild-type SMARCA4, inhibition of colony growth was more pronounced after treatment with ACBI1 than Compound 101 (FIG. 3A).

H2228 = test: Cell proliferation (colony assay) IC50; format: cell-based; settings: Homo sapiens, NCI-H2228; H2228, wild-type SMARCA4
HCC515 = test: Cell proliferation (colony assay) IC50; format: cell-based; settings: Homo sapiens; HCC515, mutant SMARCA4
Description: as §1

H1792 = test: Cell proliferation (colony assay) IC50; format: cell-based; settings: Homo sapiens, NCI-H1792; H1792, wild-type SMARCA4
Description: as §1

H1975 = test: Cell proliferation (colony assay) IC50; format: cell-based; settings: Homo sapiens, NCI-H1975; H1975, wild-type SMARCA4; concentration at which 50% of cellular proliferation is inhibited
Description: as §1

HCC44 = test: Cell proliferation (colony assay) IC50; format: cell-based; settings: Homo sapiens; HCC44, wild-type SMARCA4
Description: as §1

H2122 = test: Cell proliferation (colony assay) IC50; format: cell-based; settings: Homo sapiens, NCI-H2122; H2122, wild-type SMARCA4
Description: as §1

H1693 = test: Cell proliferation (colony assay) IC50; format: cell-based; settings: Homo sapiens, NCI-H1693; H1693, mutant SMARCA4
Description: as §1

H322 = test: Cell proliferation (colony assay) IC50; format: cell-based; settings: NCI-H322; H322, mutant SMARCA4
Description: as §1

T1 sequence (P51531 whole entry): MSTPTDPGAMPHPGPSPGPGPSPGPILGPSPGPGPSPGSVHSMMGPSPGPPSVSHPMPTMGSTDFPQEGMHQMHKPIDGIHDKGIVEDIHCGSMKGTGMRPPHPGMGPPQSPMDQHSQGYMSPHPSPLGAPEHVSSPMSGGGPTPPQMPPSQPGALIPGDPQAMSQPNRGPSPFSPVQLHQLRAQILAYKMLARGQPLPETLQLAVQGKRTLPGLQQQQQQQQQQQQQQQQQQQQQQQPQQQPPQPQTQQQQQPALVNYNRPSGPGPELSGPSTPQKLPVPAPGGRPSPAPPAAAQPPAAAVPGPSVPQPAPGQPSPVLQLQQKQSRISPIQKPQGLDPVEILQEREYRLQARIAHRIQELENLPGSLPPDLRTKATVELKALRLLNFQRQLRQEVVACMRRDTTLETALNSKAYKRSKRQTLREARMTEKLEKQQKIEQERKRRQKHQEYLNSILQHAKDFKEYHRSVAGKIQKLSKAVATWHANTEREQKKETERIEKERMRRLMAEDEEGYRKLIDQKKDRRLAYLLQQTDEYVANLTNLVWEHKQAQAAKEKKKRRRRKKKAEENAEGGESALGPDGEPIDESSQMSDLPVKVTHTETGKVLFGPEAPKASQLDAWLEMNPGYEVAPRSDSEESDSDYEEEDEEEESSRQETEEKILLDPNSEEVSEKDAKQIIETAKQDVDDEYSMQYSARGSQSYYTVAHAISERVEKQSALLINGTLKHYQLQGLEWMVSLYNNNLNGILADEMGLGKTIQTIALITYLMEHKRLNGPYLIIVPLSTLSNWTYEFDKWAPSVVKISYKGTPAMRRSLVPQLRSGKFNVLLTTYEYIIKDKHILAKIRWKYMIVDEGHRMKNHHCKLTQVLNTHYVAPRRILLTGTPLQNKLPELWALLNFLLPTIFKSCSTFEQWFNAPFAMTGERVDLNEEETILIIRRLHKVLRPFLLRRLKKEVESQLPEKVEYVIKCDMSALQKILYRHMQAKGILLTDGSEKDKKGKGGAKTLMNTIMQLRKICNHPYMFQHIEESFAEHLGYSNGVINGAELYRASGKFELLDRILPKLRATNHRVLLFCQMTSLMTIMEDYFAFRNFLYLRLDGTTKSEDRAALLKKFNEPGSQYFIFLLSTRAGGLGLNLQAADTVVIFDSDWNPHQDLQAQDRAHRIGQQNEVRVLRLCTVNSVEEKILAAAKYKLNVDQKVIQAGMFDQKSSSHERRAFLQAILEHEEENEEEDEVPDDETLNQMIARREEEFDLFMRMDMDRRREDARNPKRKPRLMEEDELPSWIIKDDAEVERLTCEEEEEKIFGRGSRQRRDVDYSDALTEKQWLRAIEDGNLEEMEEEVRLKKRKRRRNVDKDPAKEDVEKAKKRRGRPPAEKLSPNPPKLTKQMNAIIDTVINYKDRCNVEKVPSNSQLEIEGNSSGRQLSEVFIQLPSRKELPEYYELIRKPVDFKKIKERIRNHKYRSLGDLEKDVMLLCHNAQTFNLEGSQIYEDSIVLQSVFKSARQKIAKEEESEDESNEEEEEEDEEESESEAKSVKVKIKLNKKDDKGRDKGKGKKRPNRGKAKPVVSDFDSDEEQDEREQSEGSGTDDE

DC50 (SMARCA2 [1]; H441, wild-type SMARCA4 cell line): 99 nM
DC50 (SMARCA2 [1]; H1792, wild-type SMARCA4 cell line): 94 nM
SMARCA2 degradation (western blot, in words) (SMARCA2 [1]; H1975, H1792, H2122, H441, 0.001-10 μm, increasing concentrations): degraded SMARCA2 and SMARCA4
DC50 (SMARCA2 [1]; H1975, wild-type SMARCA4 cell line, concentration at which 50% of the target protein is degraded): 103 nM
DC50 (SMARCA2 [1]; H2122, wild-type SMARCA4 cell line): 292 nM
selectivity in degrading SMARCA2 compared to SMARCA4, relative to ACBI1 (SMARCA2 [1]; wild-type SMARCA4 cell lines H1975, H1792, H2122, H441): greater than 100 times
IC50 (H2023): 483 nM
SMARCA2 in tumor tissue by immunohistochemistry (in words) (SMARCA2 [2]): significant reduction in SMARCA2
reduction in the percentage of SMARCA2 positive cells (SMARCA2 [2]; tumor harvested 24 hours after last dose, versus vehicle): more than 50%
IC50 (H1793): 900 nM
IC50 (H2228): 970 nM
IC50 (HCC515): 817 nM
IC50 (H1792): 8700 nM
IC50 (H1975): > 10000 nM
IC50 (HCC44): 2500 nM
IC50 (H2122): 2600 nM
IC50 (H1693): 141 nM
IC50 (H322): 93 nM
Structure (SMILES): Nc1nnc(-c2ccccc2O)cc1N1CCN(Cc2ccc(OCCOCCNc3cccc4c3C(=O)N(C3CCC(=O)NC3=O)C4=O)c(F)c2)CC1 (stereo not drawn) [Compound 101]
tumor volume (in words) [3]: substantial reduction in tumor volume
inhibition at 0.1 µM (wild-type SMARCA4 cells; read-out: inhibition at 100 nM in wild-type SMARCA4 cells (see FIG. 3D)): < 10%
IC50 (wild-type SMARCA4 cells; wild-type SMARCA4 cells (Table 4), read-out: IC50, span over cell lines): 970 to 10000 nM
